Earlier results as cited in patent US20050176010A1, “Regulation of human transient receptor potential channel” (Bayer HealthCare AG, priority 2002, published 2005).

Key:
[1] = biological target: cold- and menthol-sensitive receptor (CMR1) (Rattus norvegicus, UniProt Q8R455); settings: McKemy et al., Nature 2002
mouse TRPM8 = mouse TRPM8 (Mus musculus, UniProt Q8R4D5); settings: Peier et al., Cell 2002
cold receptors [2] = settings: animals; Lindstrom and Mazieres 1991, Mazieres et al. 1998
cold receptors [3] = settings: all tested patients; Geirsson, J. Urol. 1993

cold- and menthol-sensitive receptor (CMR1), sequence (Q8R455 whole entry): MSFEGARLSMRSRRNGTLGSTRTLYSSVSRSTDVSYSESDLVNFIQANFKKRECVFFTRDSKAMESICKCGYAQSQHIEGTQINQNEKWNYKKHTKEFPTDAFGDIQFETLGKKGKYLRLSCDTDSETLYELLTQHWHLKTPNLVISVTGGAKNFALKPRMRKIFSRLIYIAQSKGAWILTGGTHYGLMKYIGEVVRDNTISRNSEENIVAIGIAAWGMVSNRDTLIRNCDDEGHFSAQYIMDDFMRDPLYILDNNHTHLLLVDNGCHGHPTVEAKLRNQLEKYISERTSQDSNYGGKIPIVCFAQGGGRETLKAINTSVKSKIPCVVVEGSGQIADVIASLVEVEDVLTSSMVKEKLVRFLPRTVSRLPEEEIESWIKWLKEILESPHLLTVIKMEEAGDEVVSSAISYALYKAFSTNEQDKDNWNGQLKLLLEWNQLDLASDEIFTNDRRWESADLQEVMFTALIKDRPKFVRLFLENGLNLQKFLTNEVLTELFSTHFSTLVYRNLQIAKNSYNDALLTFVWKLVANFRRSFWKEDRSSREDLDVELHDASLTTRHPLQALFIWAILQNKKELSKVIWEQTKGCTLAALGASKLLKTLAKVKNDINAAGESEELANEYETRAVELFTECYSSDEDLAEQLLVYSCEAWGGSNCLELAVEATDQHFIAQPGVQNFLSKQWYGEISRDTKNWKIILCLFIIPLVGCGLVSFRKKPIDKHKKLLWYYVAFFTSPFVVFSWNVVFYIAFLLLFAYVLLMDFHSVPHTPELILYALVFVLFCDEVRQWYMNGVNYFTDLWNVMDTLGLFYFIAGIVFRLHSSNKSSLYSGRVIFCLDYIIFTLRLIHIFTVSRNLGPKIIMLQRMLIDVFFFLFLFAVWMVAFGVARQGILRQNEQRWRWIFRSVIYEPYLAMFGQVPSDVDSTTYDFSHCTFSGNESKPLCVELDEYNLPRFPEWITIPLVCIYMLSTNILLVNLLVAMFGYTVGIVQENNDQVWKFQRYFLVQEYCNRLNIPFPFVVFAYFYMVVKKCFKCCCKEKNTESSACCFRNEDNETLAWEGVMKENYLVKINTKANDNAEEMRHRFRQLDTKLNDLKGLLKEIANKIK
mouse TRPM8, sequence (Q8R4D5 whole entry): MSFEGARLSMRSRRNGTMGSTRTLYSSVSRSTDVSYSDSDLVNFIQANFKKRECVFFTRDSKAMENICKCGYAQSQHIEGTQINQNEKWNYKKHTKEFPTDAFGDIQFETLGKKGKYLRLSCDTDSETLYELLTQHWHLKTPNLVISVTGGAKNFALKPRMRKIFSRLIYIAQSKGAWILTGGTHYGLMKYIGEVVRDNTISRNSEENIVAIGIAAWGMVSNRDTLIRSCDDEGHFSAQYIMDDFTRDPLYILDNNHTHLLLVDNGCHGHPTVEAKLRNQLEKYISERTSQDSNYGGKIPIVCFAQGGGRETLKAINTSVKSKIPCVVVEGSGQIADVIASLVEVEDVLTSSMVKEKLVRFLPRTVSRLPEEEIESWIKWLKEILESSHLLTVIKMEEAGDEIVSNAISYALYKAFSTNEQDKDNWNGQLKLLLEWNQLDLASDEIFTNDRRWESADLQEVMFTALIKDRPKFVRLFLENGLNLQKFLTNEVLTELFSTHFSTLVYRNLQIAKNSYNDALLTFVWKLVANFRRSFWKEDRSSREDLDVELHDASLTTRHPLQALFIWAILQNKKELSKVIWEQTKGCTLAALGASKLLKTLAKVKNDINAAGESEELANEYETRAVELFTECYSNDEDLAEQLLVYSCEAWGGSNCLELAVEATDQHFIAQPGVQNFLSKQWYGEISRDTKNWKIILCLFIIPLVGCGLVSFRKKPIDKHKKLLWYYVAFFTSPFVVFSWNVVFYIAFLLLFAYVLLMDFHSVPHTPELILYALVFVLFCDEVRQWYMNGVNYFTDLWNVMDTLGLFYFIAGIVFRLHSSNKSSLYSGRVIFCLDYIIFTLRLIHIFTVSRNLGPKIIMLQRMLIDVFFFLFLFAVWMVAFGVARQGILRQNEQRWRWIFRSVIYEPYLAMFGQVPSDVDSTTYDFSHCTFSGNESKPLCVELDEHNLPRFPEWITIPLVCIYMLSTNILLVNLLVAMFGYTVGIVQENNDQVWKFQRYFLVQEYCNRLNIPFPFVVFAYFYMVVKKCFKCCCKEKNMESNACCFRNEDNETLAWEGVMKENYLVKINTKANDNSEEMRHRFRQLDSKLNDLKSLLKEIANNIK

Q: With `CC1CCC(C(C)C)C(O)C1` (stereo not shown) [menthol] as the compound, how does the “activation of the channel receptor CMR1” value [1] read?
A: activated

Q: And the “gating of the ion channel” value (mouse TRPM8)?
A: gated by cold stimuli and menthol

Q: And the “temperature response curve of the bladder cooling reflex” value (cold receptors [2])?
A: shifts the temperature response curve of the bladder cooling reflex towards higher temperatures

Q: And the “threshold temperature of the cooling reflex” value (cold receptors [3])?
A: shift of the threshold temperature of the cooling reflex towards a higher value
